Measured values as given in ChEMBL document CHEMBL1124275, “Synthesis and evaluation of multisubstrate inhibitors of an oncogene-encoded tyrosine-specific protein kinase. 1” (J Med Chem, 1988).

Experiments:
[1] = Inhibition of Phosphorylase (serine) Kinase activity
[2] = molecular target: T1, Tyrosine-protein kinase transforming protein Abl (Abelson murine leukemia virus, UniProt P00521); experiment: Inhibition of p60-vabl tyrosine kinase isolated from Abelson murine leukemia virus (A-MuLV)
T1 sequence (P00521 whole entry): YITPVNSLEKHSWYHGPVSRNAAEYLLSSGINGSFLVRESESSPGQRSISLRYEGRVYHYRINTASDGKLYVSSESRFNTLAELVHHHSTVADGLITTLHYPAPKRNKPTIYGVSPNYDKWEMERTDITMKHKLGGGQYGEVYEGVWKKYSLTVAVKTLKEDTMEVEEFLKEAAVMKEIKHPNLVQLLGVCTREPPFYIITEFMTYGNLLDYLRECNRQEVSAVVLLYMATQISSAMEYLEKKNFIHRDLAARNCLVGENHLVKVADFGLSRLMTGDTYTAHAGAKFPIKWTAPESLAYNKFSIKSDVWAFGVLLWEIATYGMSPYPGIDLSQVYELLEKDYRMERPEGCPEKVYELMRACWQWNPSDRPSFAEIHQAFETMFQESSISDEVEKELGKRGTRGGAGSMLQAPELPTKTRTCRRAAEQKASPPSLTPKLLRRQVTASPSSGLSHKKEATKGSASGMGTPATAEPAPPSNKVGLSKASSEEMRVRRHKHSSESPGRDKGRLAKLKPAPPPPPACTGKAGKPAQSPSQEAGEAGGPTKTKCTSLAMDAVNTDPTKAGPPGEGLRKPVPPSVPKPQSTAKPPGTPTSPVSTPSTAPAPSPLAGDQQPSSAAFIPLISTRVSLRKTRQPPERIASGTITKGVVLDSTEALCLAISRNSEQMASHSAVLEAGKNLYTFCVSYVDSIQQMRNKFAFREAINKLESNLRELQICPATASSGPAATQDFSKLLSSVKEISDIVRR

SMILES	IC50 [1]	IC50 [2]
Nc1ncnc2c1ncn2[C@@H]1O[C@H](COC(=O)c2ccc(S(=O)(=O)Oc3ccccc3)cc2)[C@@H](O)[C@H]1O	80 µM	170 µM
Nc1ncnc2c1ncn2[C@@H]1O[C@H](COC(=O)c2ccc(S(=O)(=O)Nc3ccccc3)cc2)[C@@H](O)[C@H]1O	25 µM	19 µM
Nc1ncnc2c1ncn2[C@@H]1O[C@H](COC(=O)c2ccc(S(=O)(=O)NCc3ccccc3)cc2)[C@@H](O)[C@H]1O	–	45 µM
Nc1ncnc2c1ncn2[C@@H]1O[C@H](COC(=O)c2ccc(S(N)(=O)=O)cc2)[C@@H](O)[C@H]1O	60 µM	120 µM
Nc1ncnc2c1ncn2[C@@H]1O[C@H](COC(=O)c2ccc(S(=O)(=O)F)cc2)[C@@H](O)[C@H]1O	250 µM	150 µM
CC(=O)NC(Cc1ccc(OS(=O)(=O)c2ccc(C(=O)OC[C@H]3O[C@@H](n4cnc5c(N)ncnc54)[C@H](O)[C@@H]3O)cc2)cc1)C(N)=O (some centres undefined)	–	120 µM
Nc1ncnc2c1ncn2[C@@H]1O[C@H](COC(=O)c2ccc(S(=O)(=O)NCCCc3ccccc3)cc2)[C@@H](O)[C@H]1O	50 µM	56 µM
CS(=O)(=O)c1ccc(C(=O)OC[C@H]2O[C@@H](n3cnc4c(N)ncnc43)[C@H](O)[C@@H]2O)cc1	–	63 µM
Nc1ncnc2c1ncn2[C@@H]1O[C@H](COC(=O)c2ccc(S(=O)(=O)NCCc3ccccc3)cc2)[C@@H](O)[C@H]1O	–	50 µM
